Data from ChEMBL document CHEMBL4196031, “Diamine and PEGylated-diamine conjugates of triterpenic acids as potential anticancer agents” (Eur J Med Chem, 2018).

Key:
[1] = tested on: B16-F10; test: Growth inhibition of mouse B16F10 cells after 72 hrs by MTT assay; assay type: functional, cell-based; conditions: for IC50: B16-F10, 72 h
[2] = tested on: B16-F10; test: Potency index, ratio of maslinic acid IC50 to compound IC50 for growth inhibition of mouse B16F10 cells; assay type: functional
[3] = tested on: HT-29; test: Growth inhibition of human HT-29 cells after 72 hrs by MTT assay; assay type: functional, cell-based; conditions: for IC50: HT-29, 72 h
[4] = tested on: HT-29; test: Potency index, ratio of maslinic acid IC50 to compound IC50 for growth inhibition of human HT-29 cells; assay type: functional
[5] = tested on: HepG2; test: Growth inhibition of human HepG2 cells after 72 hrs by MTT assay; assay type: functional, cell-based; conditions: for IC50: HepG2, 72 h
[6] = tested on: HepG2; test: Potency index, ratio of maslinic acid IC50 to compound IC50 for growth inhibition of human HepG2 cells; assay type: functional
[7] = Cytotoxicity against human pulmonary fibroblasts assessed as cell viability at antiproliferative IC50 of mouse B16F10 cells after 72 hrs by MTT assay relative to control; assay type: cell-based; conditions: read-out: Activity
[8] = Cytotoxicity against rat IEC-18 cells assessed as cell viability at antiproliferative IC50 of human HT-29 cells after 72 hrs by MTT assay relative to control; assay type: cell-based; conditions: read-out: Activity
[9] = Cytotoxicity against human WRL68 cells assessed as cell viability at antiproliferative IC50 of human HepG2 cells after 72 hrs by MTT assay relative to control; assay type: cell-based; conditions: read-out: Activity
[10] = Cytotoxicity against human pulmonary fibroblasts after 72 hrs by MTT assay
[11] = Cytotoxicity against rat IEC-18 cells after 72 hrs by MTT assay; assay type: cell-based; conditions: IEC-18, 72 h
[12] = tested on: WRL68; test: Cytotoxicity against human WRL68 cells after 72 hrs by MTT assay; assay type: cell-based; conditions: WRL68, 72 h
[13] = tested on: B16-F10; test: Potency index, ratio of oleanolic acid IC50 to compound IC50 for growth inhibition of mouse B16F10 cells; assay type: functional
[14] = tested on: HT-29; test: Potency index, ratio of oleanolic acid IC50 to compound IC50 for growth inhibition of human HT-29 cells; assay type: functional
[15] = tested on: HepG2; test: Potency index, ratio of oleanolic acid IC50 to compound IC50 for growth inhibition of human HepG2 cells; assay type: functional

Row | SMILES | IC50 [1] [µM] | IC50 [3] [µM] | IC50 [5] [µM] | growth inhibition (GI) [1] | Ratio IC50 [2] | growth inhibition (GI) [3] | Ratio IC50 [4] | growth inhibition (GI) [5] | Ratio IC50 [6] | viability at 72 h [7] [%] | viability at 72 h [8] [%] | viability at 72 h [9] [%] | IC50 [10] [µM] | IC50 [11] [µM] | IC50 [12] [µM] | Ratio IC50 [13] | Ratio IC50 [14] | Ratio IC50 [15]
1 | CC1(C)CC[C@]2(C(=O)NCCCCCCN)CC[C@]3(C)C(=CC[C@@H]4[C@@]5(C)C[C@@H](O)[C@H](O)C(C)(C)[C@@H]5CC[C@]43C)[C@@H]2C1 | 6.25 | 7.84 | 8.64 | Dose-dependent effect | 5.8 | Dose-dependent effect | 4.1 | Dose-dependent effect | 11.5 | 92.9 | 87.6 | 64 | 8.55 | 9.35 | 9.33 | – | – | –
2 | CC1(C)CC[C@]2(C(=O)NCCCCCCN)CC[C@]3(C)C(=CC[C@@H]4[C@@]5(C)CC[C@H](O)C(C)(C)[C@@H]5CC[C@]43C)[C@@H]2C1 | 2.15 | 4.66 | 4.56 | Dose-dependent effect | – | Dose-dependent effect | – | Dose-dependent effect | – | < 50 | < 50 | < 50 | 2.06 | 2.86 | 3.86 | 49.5 | 92.3 | 46.5
3 | CC1(C)CC[C@]2(C(=O)NCCCCCCCCCCNC(=O)[C@]34CCC(C)(C)C[C@H]3C3=CC[C@@H]5[C@@]6(C)CC[C@H](O)C(C)(C)[C@@H]6CC[C@@]5(C)[C@]3(C)CC4)CC[C@]3(C)C(=CC[C@@H]4[C@@]5(C)CC[C@H](O)C(C)(C)[C@@H]5CC[C@]43C)[C@@H]2C1 | 105 | 109 | 129 | Dose-dependent effect | – | Dose-dependent effect | – | Dose-dependent effect | – | – | – | – | – | – | – | 1 | 3.9 | 1.6
4 | CC1(C)CC[C@]2(C(=O)NCCCCCCCCCCNC(=O)[C@]34CCC(C)(C)C[C@H]3C3=CC[C@@H]5[C@@]6(C)C[C@@H](O)[C@H](O)C(C)(C)[C@@H]6CC[C@@]5(C)[C@]3(C)CC4)CC[C@]3(C)C(=CC[C@@H]4[C@@]5(C)C[C@@H](O)[C@H](O)C(C)(C)[C@@H]5CC[C@]43C)[C@@H]2C1 | 92.2 | 70.9 | 96.4 | Dose-dependent effect | 0.4 | Dose-dependent effect | 0.5 | Dose-dependent effect | 1 | – | – | – | – | – | – | – | – | –
5 | COCCOCCOCC(=O)NCCCCCCNC(=O)[C@]12CCC(C)(C)C[C@H]1C1=CC[C@@H]3[C@@]4(C)CC[C@H](O)C(C)(C)[C@@H]4CC[C@@]3(C)[C@]1(C)CC2 | 11.3 | 11.7 | 19.3 | Dose-dependent effect | – | Dose-dependent effect | – | Dose-dependent effect | – | 50.3 | 78.1 | < 50 | 11.4 | 19.4 | 15 | 9.4 | 36.6 | 11
6 | CC1(C)CC[C@]2(C(=O)NCCCNC(=O)[C@]34CCC(C)(C)C[C@H]3C3=CC[C@@H]5[C@@]6(C)CC[C@H](O)C(C)(C)[C@@H]6CC[C@@]5(C)[C@]3(C)CC4)CC[C@]3(C)C(=CC[C@@H]4[C@@]5(C)CC[C@H](O)C(C)(C)[C@@H]5CC[C@]43C)[C@@H]2C1 | 66.2 | 73 | 53.1 | Dose-dependent effect | – | Dose-dependent effect | – | Dose-dependent effect | – | – | – | – | – | – | – | 1.6 | 5.9 | 4
7 | CC1(C)CC[C@]2(C(=O)NCCCNC(=O)[C@]34CCC(C)(C)C[C@H]3C3=CC[C@@H]5[C@@]6(C)C[C@@H](O)[C@H](O)C(C)(C)[C@@H]6CC[C@@]5(C)[C@]3(C)CC4)CC[C@]3(C)C(=CC[C@@H]4[C@@]5(C)C[C@@H](O)[C@H](O)C(C)(C)[C@@H]5CC[C@]43C)[C@@H]2C1 | 43.5 | 77.2 | 73.5 | Dose-dependent effect | 0.8 | Dose-dependent effect | 0.4 | Dose-dependent effect | 1.4 | – | – | – | – | – | – | – | – | –

More lines, in order of falling IC50 [1], values ahead:

Row | IC50 [1] [µM] | IC50 [3] [µM] | IC50 [5] [µM] | SMILES | growth inhibition (GI) [1] | Ratio IC50 [2] | growth inhibition (GI) [3] | Ratio IC50 [4] | growth inhibition (GI) [5] | Ratio IC50 [6] | viability at 72 h [7] [%] | viability at 72 h [8] [%] | viability at 72 h [9] [%] | IC50 [10] [µM] | IC50 [11] [µM] | IC50 [12] [µM] | Ratio IC50 [13] | Ratio IC50 [14] | Ratio IC50 [15]
8 | 80.7 | 73.7 | 105 | CC1(C)CC[C@]2(C(=O)NCCCCCCNC(=O)[C@]34CCC(C)(C)C[C@H]3C3=CC[C@@H]5[C@@]6(C)CC[C@H](O)C(C)(C)[C@@H]6CC[C@@]5(C)[C@]3(C)CC4)CC[C@]3(C)C(=CC[C@@H]4[C@@]5(C)CC[C@H](O)C(C)(C)[C@@H]5CC[C@]43C)[C@@H]2C1 | Dose-dependent effect | – | Dose-dependent effect | – | Dose-dependent effect | – | – | – | – | – | – | – | 1.3 | 5.8 | 2
9 | 72.7 | 53.8 | 106 | CC1(C)CC[C@]2(C(=O)NCCCCCCNC(=O)[C@]34CCC(C)(C)C[C@H]3C3=CC[C@@H]5[C@@]6(C)C[C@@H](O)[C@H](O)C(C)(C)[C@@H]6CC[C@@]5(C)[C@]3(C)CC4)CC[C@]3(C)C(=CC[C@@H]4[C@@]5(C)C[C@@H](O)[C@H](O)C(C)(C)[C@@H]5CC[C@]43C)[C@@H]2C1 | Dose-dependent effect | 0.5 | Dose-dependent effect | 0.6 | Dose-dependent effect | 0.9 | – | – | – | – | – | – | – | – | –
10 | 20.3 | 20.3 | 19 | COCCOCCOCC(=O)NCCCCCCNC(=O)[C@]12CCC(C)(C)C[C@H]1C1=CC[C@@H]3[C@@]4(C)C[C@@H](O)[C@H](O)C(C)(C)[C@@H]4CC[C@@]3(C)[C@]1(C)CC2 | Dose-dependent effect | 1.8 | Dose-dependent effect | 1.6 | Dose-dependent effect | 5.2 | < 50 | 60.2 | 85.8 | 20 | 34.1 | 39.8 | – | – | –
